This is an account of results in patent US9926324B2, “Heteroaromatic compounds as PI3 kinase modulators and methods of use” (Calitor Sciences, LLC, priority 2012, dated 2018).

In series [1] the target is T1, mTOR (h) (Homo sapiens, UniProt P42345).
T1 construct: purchased Millipore UK Ltd (assay service)
Nature of the series: mTOR (h) kinase assay (33P-ATP, filter). Format: biochemical. The procedure: mTOR (h) is incubated with 50 mM HEPES pH 7.5, 1 mM EDTA, 0.01% Tween 20, 2 mg/mL substrate, 3 mM Manganese Chloride and [γ-^33P-ATP] (specific activity approx. 500 cpm/pmol, concentration as required). The reaction is initiated by the addition of the MnATP mix. After incubation for 40 minutes at room temperature, the reaction is stopped by the addition of 3% phosphoric acid solution. 10 μL of the reaction is then spotted onto a P30 filtermat and washed three times for 5 minutes in 75 mM phosphoric acid and once in methanol prior to drying and scintillation counting.
(§1) The kinase assays described herein were performed at Millipore UK Ltd, Dundee Technology Park, Dundee DD2 1SW, UK.

Series [2] can be described thus: Pharmacokinetic profiles in monkeys after intravenous and oral administration. Format: in vivo. Conditions: Monkey; for F: iv dose 1 mg/kg, oral dose generally 10 mg/kg; for Cl/F / AUC(0-t) / half-life / Vd: iv dosing 1 mg/kg; for AUC(0-t) / half-life / Vd: plasma; for Vd: read-out: Vss. As for the experimental part:
The compounds disclosed herein are assessed in pharmacokinetic studies in mice, rats, dogs or monkeys. The compounds are administered as a water solution, 2% HPMC+1% TWEEN® 80 in water solution, 5% DMSO+5% solutol in saline, 4% MC suspension or capsule. For the intravenous administration, the animals are generally given at 1 or 2 mg/kg dose. For the oral (p.o.) dosing, mice and rats are generally given 5 or 10 mg/kg dose, and dogs and monkeys are generally given 10 mg/kg dose. The blood samples (0.3 mL) are drawn at 0.25, 0.5, 1.0, 2.0, 3.0, 4.0, 6.0, 8.0, 12 and 24 h time points or 0.083, 0.25, 0.5, 1.0, 2.0, 4.0, 6.0, 8.0 and 24 h time points and centrifuged at 3,000 or 4000 rpm for 2 to 10 min. The plasma solutions are collected, stored at −20° C. or −70° C. until analyzed by LC/MS/MS as described above.

The subject of series [3] is U87MG glioblastoma cells. Nature of the series: Tumor xenograft model (U87MG), tumor growth inhibition. The series is classed as in vivo, athymic nude mice. As for the experimental part: The efficacy of compounds disclosed herein was evaluated in a standard murine model of tumorigenesis. Human tumor cells (U87MG glioblastoma cells from ATCC) were expended in culture, harvested, and injected subcutaneously onto the rear flank of 6-7 week old female athymic nude mice (BALB/cA nu/nu, Hunan SLAC Laboratory Animal, Co.) (n=6-10 for vehicle group and for each dosing group). When tumors reached a volume of 100-250 mm^3, animals were randomly divided into vehicle control (for example, 5% DMSO+70% Captisol® (30%), 7% HCl (pH1), 18% Captisol® (30%); or 7% DMSO, 7% HCl (pH1), 70% Captisol® (30%), 16% Captisol® (30%), or the like) and compound groups. Subsequent administration of compound by oral gavage begins anywhere from day 0 to day 15 post tumor cell challenge and generally continues with once a day for the duration of the experiment.
Progression of tumor growth is assessed by tumor volumes and recorded as a function of time. The long (L) and short (W) axes of the subcutaneous tumors were measured with calipers twice weekly, and the tumor volume (TV) calculated as (L×W^2)/2). TGI was calculated from the difference between the median tumor volumes of vehicle-treated and drug-treated mice, expressed as a percentage of the median tumor volume of the vehicle-treated control group, by the following relation:
Initial statistical analysis is done by repeated measures analysis of variance (RMANOVA), followed by Scheffe psot hoc testing for multiple comparisons. Vehicle alone (5% DMSO+70% Captisol® (30%), 7% HCl (pH1), 18% Captisol® (30%); or 7% DMSO, 7% HCl (pH1), 70% Captisol® (30%), 16% Captisol® (30%), or the like) is the negative control.

Series [4] deals with T2, PI3K (p120γ) (h) (Homo sapiens, UniProt P48736).
T2 construct: purchased Millipore UK Ltd (assay service)
Nature of the series: PI3K p120γ (h) non-radioactive HTRF assay. Format: biochemical. As for the experimental part:
PI3K (p120γ) (h) is incubated in assay buffer containing 10 μM phosphatidylinositol-4,5-bisphosphate and MgATP (concentration as required). The reaction is initiated by the addition of the MgATP mix. After incubation for 30 minutes at room temperature, the reaction is stopped by the addition of stop solution containing EDTA and biotinylated phosphatidylinositol-3,4,5-trisphosphate. Finally, detection buffer is added, which contains europium-labelled anti-GST monoclonal antibody, GST-tagged GRP1 PH domain and streptavidin-allophycocyanin. The plate is then read in timeresolved fluorescence mode and the homogenous time-resolved fluorescence (HTRF) signal is determined according to the formula HTRF=10000×(Em665 nm/Em620 nm).
as §1

As a reminder, the IC50 is the midpoint of a concentration-inhibition curve. Usually AUC(0-t) stands for exposure summed from dosing to a finite time, without extrapolation to infinity. A lower AUC(0-t) goes with low exposure. As a reminder, the half-life is the time needed for the level to fall by half in the phase considered. A lower half-life goes with rapid decline.

Each structure is given as a SMILES string.

T2 sequence (P48736 whole entry): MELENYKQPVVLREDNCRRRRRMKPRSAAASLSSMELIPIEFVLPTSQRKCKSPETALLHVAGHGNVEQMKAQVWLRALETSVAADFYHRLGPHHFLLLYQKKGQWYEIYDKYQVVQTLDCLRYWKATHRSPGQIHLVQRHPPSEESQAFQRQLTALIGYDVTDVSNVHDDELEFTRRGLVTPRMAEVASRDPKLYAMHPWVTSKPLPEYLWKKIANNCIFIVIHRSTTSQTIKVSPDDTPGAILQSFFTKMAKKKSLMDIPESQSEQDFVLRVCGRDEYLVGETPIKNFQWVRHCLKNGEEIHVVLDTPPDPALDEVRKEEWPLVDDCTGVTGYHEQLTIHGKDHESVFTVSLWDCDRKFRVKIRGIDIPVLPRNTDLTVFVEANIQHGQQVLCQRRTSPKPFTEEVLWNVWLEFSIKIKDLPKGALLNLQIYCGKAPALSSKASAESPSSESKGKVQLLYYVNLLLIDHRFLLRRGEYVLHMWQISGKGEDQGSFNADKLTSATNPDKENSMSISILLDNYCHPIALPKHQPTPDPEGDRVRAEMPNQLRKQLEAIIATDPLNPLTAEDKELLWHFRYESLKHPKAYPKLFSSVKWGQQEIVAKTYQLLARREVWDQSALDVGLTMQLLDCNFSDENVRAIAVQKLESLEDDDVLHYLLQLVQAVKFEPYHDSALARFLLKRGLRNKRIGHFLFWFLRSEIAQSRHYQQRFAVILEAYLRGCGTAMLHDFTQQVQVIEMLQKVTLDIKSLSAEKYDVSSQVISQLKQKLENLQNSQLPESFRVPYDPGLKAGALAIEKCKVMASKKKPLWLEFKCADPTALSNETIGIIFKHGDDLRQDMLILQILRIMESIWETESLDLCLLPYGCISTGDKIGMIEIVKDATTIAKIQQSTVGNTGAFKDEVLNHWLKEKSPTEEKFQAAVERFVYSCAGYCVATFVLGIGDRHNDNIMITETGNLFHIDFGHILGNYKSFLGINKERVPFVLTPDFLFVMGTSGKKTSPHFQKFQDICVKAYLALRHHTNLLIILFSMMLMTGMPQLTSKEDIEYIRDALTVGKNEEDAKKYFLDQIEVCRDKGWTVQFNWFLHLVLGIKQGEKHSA

Turning to `COc1ncc(-c2ccc3ncc(C#CCO)n3n2)cc1NS(=O)(=O)c1ccc(F)cc1F` [Ex. 9, 2,4-difluoro-N-(5-(3-(3-hydroxyprop-1-yn-1-yl)imidazo[1,2-b]pyridazin-6-yl)-2-methoxypyridin-3-yl)benzenesulfonamide], the IC50 in series [1] was determined as 9 nM. In series [2], this compound had an F of 27.3%, a Cl/F of 7.5 mL/min/kg, an AUC(0-t) of 2370 ng·h/mL and a half-life of 3.59 h. Moreover, the Vd in series [2] was found to be 0.39 L/kg. Further, the “TGI % U87MG” value in series [3] (1 mg/kg oral gavage, 12 days) is 23%. Further, in series [3] (3 mg/kg oral gavage, 12 days), the “TGI % U87MG” value is recorded as 26%. In addition, the “TGI % U87MG” value in series [3] (10 mg/kg oral gavage, 12 days) stood at 62%.
Take `COc1ncc(-c2ccc3ncc(C#CCO)n3c2)cc1NS(=O)(=O)c1ccc(F)cc1F` [Ex. 15, 2,4-difluoro-N-(5-(3-(3-hydroxyprop-1-yn-1-yl)imidazo[1,2-a]pyridin-6-yl)-2-methoxypyridin-3-yl)benzenesulfonamide]: the half-inhibitory concentration (IC50) in series [1] was 34 nM. In series [2], this compound gave an F of 55.4%, a Cl/F of 5.33 mL/min/kg, an AUC(0-t) of 3200 ng·h/mL and a half-life of 5.89 h. In addition, in series [2], the Vd was determined as 0.76 L/kg. Besides, the concentration for half-maximal inhibition (IC50) in series [4] turned out to be 37 nM. In addition, the “TGI % U87MG” value in series [3] (3 mg/kg oral gavage, 12 days) is reported as 28%. In addition, the “TGI % U87MG” value in series [3] (10 mg/kg oral gavage, 12 days) is on record as 51%.
With `COc1ncc(-c2ccc3ncc(C#CC(C)O)n3c2)cc1NS(=O)(=O)c1ccc(F)cc1F` (centres unmarked) [Ex. 16, 2,4-difluoro N (5 (3 (3 hydroxybut-1-yn-1-yl)imidazo[1,2-a]pyridin-6-yl)-2-methoxypyridin-3-yl)benzenesulfonamide], the half-inhibitory concentration (IC50) turned out to be 31 nM in series [1] and 5 nM in series [4]. Also, the “TGI % U87MG” value was determined as 14% in series [3] (3 mg/kg oral gavage, 12 days) and 43% in series [3] (10 mg/kg oral gavage, 12 days).
In series [1], `COc1ncc(-c2ccc3ncc(C#N)n3n2)cc1NS(=O)(=O)c1ccc(F)cc1F` [Ex. 24, N-(5-(3-cyanoimidazo[1,2-b]pyridazin-6-yl)-2-methoxypyridin-3-yl)-2,4-difluorobenzenesulfonamide] showed an IC50 of 3 nM. In addition, in series [2], the F was 69.8%, the Cl/F is 3.67 mL/min/kg, the AUC(0-t) stood at 4640 ng·h/mL and the half-life is 6.05 h. Besides, the Vd in series [2] was 0.64 L/kg. In series [4], the IC50 amounted to 4 nM. Moreover, in series [3] (0.3 mg/kg oral gavage, 9 days), the “TGI % U87MG” value is reported as 53%. Further, the “TGI % U87MG” value in series [3] (1 mg/kg oral gavage, 9 days) is 84%. Further, in series [3] (3 mg/kg oral gavage, 9 days), the “TGI % U87MG” value is 108%.
